ChEMBL document CHEMBL4321834, “Glechomanamides A-C, Germacrane Sesquiterpenoids with an Unusual Δ8-7,12-Lactam Moiety from Salvia scapiformis and Their Antiangiogenic Activity” (J Nat Prod, 2019)
Calls of active or inactive are those of the source. The rule behind the calls is not given here.

How the values were obtained:
HUVEC [1] = test: Decrease in total VEGF expression in HUVEC at 1 to 100 uM preincubated for 30 mins followed by incubation with VEGF for 20 mins by Western blot analysis; type: functional, cell-based; settings: Homo sapiens
HUVEC [2] = test: Decrease in BMP4 expression in HUVEC at 1 to 100 uM preincubated for 30 mins followed by incubation with VEGF for 20 mins by Western blot analysis; type: functional, cell-based; settings: Homo sapiens
[3] = target: Vascular endothelial growth factor receptor 2 (Homo sapiens) (UniProt P35968); test: Inhibition of VEGF-induced VEGFR2 phosphorylation in HUVEC at 1 to 100 uM preincubated for 30 mins followed by stimulation with VEGF for 20 mins by Western blot analysis; type: cell-based
HUVEC [4] = test: Decrease in GLUT1 expression in HUVEC at 1 to 100 uM preincubated for 30 mins followed by incubation with VEGF for 20 mins by Western blot analysis; type: functional, cell-based; settings: Homo sapiens
[5] = target: Vascular endothelial growth factor receptor 2 (Homo sapiens) (UniProt P35968); test: Inhibition of VEGFR2 in HUVEC assessed as inhibition of VEGF-induced tube formation incubated for 8 hrs by inverted microscopic method; type: cell-based
HUVEC [6] = test: Decrease in HK2 expression in HUVEC at 1 to 100 uM preincubated for 30 mins followed by incubation with VEGF for 20 mins by Western blot analysis; type: functional, cell-based; settings: Homo sapiens
[7] = target: Vascular endothelial growth factor receptor 2 (Homo sapiens) (UniProt P35968); test: Inhibition of VEGFR2 in HUVEC assessed as inhibition of VEGF-induced tube formation at 80 uM incubated for 8 hrs by inverted microscopic method; type: cell-based
HUVEC [8] = test: Decrease in D-glucose-induced ANGPT2 mRNA expression in HUVEC at 10 uM incubated for 48 hrs in presence of […] by real time-PCR analysis; type: functional, cell-based; settings: Homo sapiens
HUVEC [9] = test: Decrease in D-glucose-induced BMP4 mRNA expression in HUVEC at 10 uM incubated for 48 hrs in presence of […] by real time-PCR analysis; type: functional, cell-based; settings: Homo sapiens
HUVEC [10] = test: Decrease in D-glucose-induced BMP4 mRNA expression in HUVEC at 500 uM incubated for 48 hrs in presence of […] by real time-PCR analysis; type: functional, cell-based; settings: Homo sapiens
HUVEC [11] = test: Decrease in D-glucose-induced ANGPT2 mRNA expression in HUVEC at 500 uM incubated for 48 hrs in presence of […] by real time-PCR analysis; type: functional, cell-based; settings: Homo sapiens

Vascular endothelial growth factor receptor 2 (Homo sapiens), sequence (P35968 whole entry): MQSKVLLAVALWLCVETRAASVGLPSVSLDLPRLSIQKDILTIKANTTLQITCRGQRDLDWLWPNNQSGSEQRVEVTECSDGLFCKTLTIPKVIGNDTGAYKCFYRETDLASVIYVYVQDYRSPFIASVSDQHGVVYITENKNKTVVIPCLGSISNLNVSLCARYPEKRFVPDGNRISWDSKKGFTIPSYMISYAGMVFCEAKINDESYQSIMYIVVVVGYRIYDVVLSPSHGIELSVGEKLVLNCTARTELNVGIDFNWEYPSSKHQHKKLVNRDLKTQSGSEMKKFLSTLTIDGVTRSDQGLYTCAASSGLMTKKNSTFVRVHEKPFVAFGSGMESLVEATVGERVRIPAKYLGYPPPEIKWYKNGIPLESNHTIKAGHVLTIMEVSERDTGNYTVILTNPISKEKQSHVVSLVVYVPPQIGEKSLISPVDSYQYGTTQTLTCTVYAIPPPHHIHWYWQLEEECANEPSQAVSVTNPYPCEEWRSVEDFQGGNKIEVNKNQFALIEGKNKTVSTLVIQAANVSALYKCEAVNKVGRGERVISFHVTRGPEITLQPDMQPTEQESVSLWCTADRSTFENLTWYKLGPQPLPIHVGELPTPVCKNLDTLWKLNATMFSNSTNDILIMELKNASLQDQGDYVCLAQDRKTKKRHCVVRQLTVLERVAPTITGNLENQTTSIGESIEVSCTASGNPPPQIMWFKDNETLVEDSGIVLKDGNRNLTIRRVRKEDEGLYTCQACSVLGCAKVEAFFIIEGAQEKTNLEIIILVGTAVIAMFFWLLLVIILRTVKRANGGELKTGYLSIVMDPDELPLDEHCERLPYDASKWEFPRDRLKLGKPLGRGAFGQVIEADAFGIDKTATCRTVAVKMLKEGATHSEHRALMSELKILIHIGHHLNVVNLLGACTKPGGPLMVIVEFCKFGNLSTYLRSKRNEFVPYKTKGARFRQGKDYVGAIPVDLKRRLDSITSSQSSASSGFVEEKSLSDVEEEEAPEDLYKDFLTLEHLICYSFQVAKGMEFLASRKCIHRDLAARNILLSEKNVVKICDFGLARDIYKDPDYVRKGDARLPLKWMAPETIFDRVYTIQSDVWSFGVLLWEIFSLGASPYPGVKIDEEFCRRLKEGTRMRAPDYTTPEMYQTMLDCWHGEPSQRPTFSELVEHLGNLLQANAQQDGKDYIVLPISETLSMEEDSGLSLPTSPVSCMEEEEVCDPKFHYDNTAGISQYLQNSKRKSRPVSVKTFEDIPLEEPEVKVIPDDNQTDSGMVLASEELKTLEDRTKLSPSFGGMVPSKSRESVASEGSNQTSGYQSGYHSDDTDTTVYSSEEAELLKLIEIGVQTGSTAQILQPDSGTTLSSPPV

Row | inhibition [3] | inhibition [5] | inhibition [7] | SMILES | inhibition (HUVEC [1]) | inhibition (HUVEC [2]) | inhibition (HUVEC [4]) | inhibition (HUVEC [6]) | inhibition (HUVEC [8]) | inhibition (HUVEC [9]) | inhibition (HUVEC [10]) | inhibition (HUVEC [11])
1 | Active | Dose-dependent effect | Active | C/C=C(\C)C(=O)O[C@@H]1C2=C(C)C(=O)N[C@]2(O)C[C@@]2(C)O[C@@H]2CC[C@@]2(C)O[C@H]12 | Active | Active | Active | Active | Active | Active | – | –
2 | – | – | – | CN(C)C(=N)NC(=N)N | – | – | – | – | – | – | Active | Active
